“Also recorded” adds a separate entry of the source. Read-outs that look alike come from different tables or passages of the source.
Experiments:
[1] = molecular target: T1, olfactory receptor OR240 (also OR7D4) (Homo sapiens, UniProt Q8NG98); assay: Calcium imaging of HBO cells transiently transfected with OR7D4; assay type: cell-based; details: HBO cells transfected with OR7D4/OR240 plus chaperone DNA (RTP1S and M3); 30 or 100 micromolar
T1 construct: expressed in transfected cells; host or cells: cultured human taste papillae (HBO) cells, Lipofectamine 2000, transient
T1 sequence (Q8NG98 1-312): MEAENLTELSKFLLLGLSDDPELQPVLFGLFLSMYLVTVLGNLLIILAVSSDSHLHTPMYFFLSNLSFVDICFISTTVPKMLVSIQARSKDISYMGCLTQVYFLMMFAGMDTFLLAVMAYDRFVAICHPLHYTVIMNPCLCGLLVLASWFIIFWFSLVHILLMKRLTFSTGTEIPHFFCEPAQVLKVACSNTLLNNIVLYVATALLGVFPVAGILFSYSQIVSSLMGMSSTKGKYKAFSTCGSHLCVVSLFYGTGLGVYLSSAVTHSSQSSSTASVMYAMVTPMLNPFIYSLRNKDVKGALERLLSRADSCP

[2] = system: olfactory receptor ORS6 (also Olfr544); assay: Calcium imaging of HBO cells transiently transfected with ORS6; assay type: cell-based, mouse; details: HBO cells transfected with ORS6 plus chaperone DNA (RTP1S and M3); 30 or 100 micromolar
[3] = system: cultured taste papillae cells obtained from M129 mice; assay: Calcium imaging of cultured wild mouse (m129) taste papillae cells; assay type: cell-based; details: fura-2 calcium imaging; odorants at optimal concentration 100 uM; wild (m129) mouse taste cell cultures
Description: (§1) Circumvallate and foliate papillae obtained from wild (m129), I7, M71 and Eugenol transgenic mice were isolated according to previously published procedure (Ozdener et al., 2006, cited above). Briefly, mouse taste papillae were removed by injecting the mixture of enzyme (pronase, 1 mg/ml Sigma and elastase 1 mg/ml Sigma) and immediately placed into an isolation solution followed by enzymatic digestion. Digested taste papillae tissue were then gently minced with a surgical razor and seeded on collagen type-1 coated coverslips and incubated at 36° C. in a humidified environment containing 5% CO2.
Changes in intracellular calcium levels in response to stimuli were measured. Cultured human fungiform and mice taste papillae cells were seeded on 15 mm coverslips. Cells were loaded with […] Fura-2 AM (Molecular Probes Inc.) in 10 mg/mL Pluronic® F127 (Molecular Probes Inc.) in modified Ringer solution for 1 hour at 36° C. Individual odors, bitter mixture [phenylthiocarbamide (PTC, 2 mM) and Denatonium (2 mM), Salicin (5 mM)]; and Mix A [cAMP-producing odors in rat biochemical assays (Breer and Boekhoff, 1991, Chem. Senses, 16(1): 19-29, and Restrepo et al., 1993, J. Gen. Physiol., 102:907-924); both of which are incorporated herein by reference] (100 mM): hedione, geraniol, phenylethyl alcohol, citralva, citronellal, and eugenol,]; and Mix B [IP3-producing odors in rat biochemical assays (Breer and Boekhoff, 1991 and Restrepo et al 1993)] (100 mM): lyral, lilial, triethylamine, ethyl vanillin, isovaleric acid, and phenylethyl amine]) was diluted in Ringer, which was prepared with pH adjusted to 7.2 and osmolality adjusted to 300 mmol/kg. A coverslip was placed into a p4 chamber system with the delivery and waste pipes attached to the chamber. […] Following image acquisition, regions of interest (ROIs) on the cells along with a background control region were selected to be measured for fluorescence ratios and intensity values. […] Ratio data for the cells were subsequently analyzed on Excel to determine which cells had responded with a significant change in intracellular calcium. […]

[4] = system: cultured taste papillae cells obtained from mOR-M71-GFP ("M71") mice; assay: Calcium imaging of cultured taste papillae cells from mOR-M71-GFP mice; assay type: cell-based; details: fura-2 calcium imaging; odorants at optimal concentration 100 uM; mOR-M71-GFP mouse taste cell cultures
Description: as §1
(§2) Changes in intracellular calcium levels in response to stimuli were measured. Cultured human fungiform and mice taste papillae cells were seeded on 15 mm coverslips. Cells were loaded with […] Fura-2 AM (Molecular Probes Inc.) in 10 mg/mL Pluronic® F127 (Molecular Probes Inc.) in modified Ringer solution for 1 hour at 36° C. […] Following image acquisition, regions of interest (ROIs) on the cells along with a background control region were selected to be measured for fluorescence ratios and intensity values. […] Ratio data for the cells were subsequently analyzed on Excel to determine which cells had responded with a significant change in intracellular calcium. […]

[5] = system: cultured fungiform taste papillae (HBO) cells obtained from human tongue; assay: Calcium imaging of cultured human fungiform taste papillae (HBO) cells; assay type: cell-based; details: fura-2 calcium imaging, odorants at optimal concentration 100 uM
Description: The human fungiform papillae cells were cultured according to published protocols (Ozdener et al., Chem Senses. 2006 March; 31(3): 279-90; Ozdener et al., In Vitro Cellular & Developmental Biology—Animal. September 2011, 47(8): 513-14; each of which is incorporated herein by reference). Briefly, human fungiform taste papillae were removed and immediately placed into an isolation solution [26 mM NaHCO3, 2.5 mM NaH2PO4, 20 mM glucose, 65 mM NaCl, 20 mM KCl, and 1 mM ethylenediaminetetraacetic acid (EDTA)] followed by enzymatic digestion with pronase E and elastase. Digested fungiform papillae were then gently minced with a surgical razor and seeded on collagen type-1 coated coverslips and incubated at 36° C. in a humidified environment containing 5% CO2. The human fungiform taste papillae were cultured in Iscove's Modified Dulbecco's medium containing 10% fetal bovine serum, 1:5 ratio of MCDB 153, and a triple cocktail of antibiotics (100 U/mL/100 μg/mL, penicillin/streptomycin, and 0.5 μg/mL fungizone). Human fungiform taste papillae cells have been maintained in culture for a period of more than 1 year without loss of viability and with retention of the molecular and biochemical properties of acutely isolated taste cells.
(§3) Changes in intracellular calcium levels in response to stimuli were measured. Cultured human fungiform and mice taste papillae cells were seeded on 15 mm coverslips. Cells were loaded with […] Fura-2 AM (Molecular Probes Inc.) in 10 mg/mL Pluronic® F127 (Molecular Probes Inc.) in modified Ringer solution for 1 hour at 36° C. Individual odors, bitter mixture [phenylthiocarbamide (PTC, 2 mM) and Denatonium (2 mM), Salicin (5 mM)]; and Mix A [cAMP-producing odors in rat biochemical assays (Breer and Boekhoff, 1991, Chem. Senses, 16(1): 19-29, and Restrepo et al., 1993, J. Gen. Physiol., 102:907-924); both of which are incorporated herein by reference] (100 mM): hedione, geraniol, phenylethyl alcohol, citralva, citronellal, and eugenol,]; and Mix B [IP3-producing odors in rat biochemical assays (Breer and Boekhoff, 1991 and Restrepo et al 1993)] (100 mM): lyral, lilial, triethylamine, ethyl vanillin, isovaleric acid, and phenylethyl amine]) was diluted in Ringer, which was prepared with pH adjusted to 7.2 and osmolality adjusted to 300 mmol/kg. A coverslip was placed into a p4 chamber system with the delivery and waste pipes attached to the chamber. This allowed for a stable and constant flow of liquid in and out of the chamber. The cells were visualized with an inverted florescence microscope using an excitation wavelength of 380 nm. Stimulus selection and delivery, focusing, and image acquisition were done using PTI software. Following image acquisition, regions of interest (ROIs) on the cells along with a background control region were selected to be measured for fluorescence ratios and intensity values. Cultured taste papillae cells were first washed for 1-3 min with Ringer, and then stimuli delivery was initiated. Each stimulus was delivered for 30 sec-1 min followed by an approximately 2 min wash out period with Ringer. Ratio data for the cells were subsequently analyzed on Excel to determine which cells had responded with a significant change in intracellular calcium. After calcium imaging, coverslips were fixed with 4% PFA for 10 min and washed 3× with PBS.

[6] = system: immortalized human fungiform taste papillae (Ulduz) cells; assay: Odor response of immortalized human fungiform taste papillae (Ulduz) cells; assay type: cell-based
Description: as §3
In a similar manner, immortalized human fungiform taste papillae (Ulduz) cells, responded to receptor specific odors, heptaldehyde, acetophenone, methyl cinnamon, eugenol and lyral.

[7] = system: cultured taste papillae cells obtained from mOR-EG-GFP ("mEUG") mice; assay: Calcium imaging of cultured taste papillae cells from mOR-EG-GFP mice; assay type: cell-based; details: fura-2 calcium imaging; odorants at optimal concentration 100 uM; mOR-EG-GFP mouse taste cell cultures
Description: as §1, §2

SMILES	response to stimulus (change in intracellular calcium) [3]	response to stimulus (change in intracellular calcium [Ca2+]i) [5]	response to receptor specific odor [6]	further results
C[C@@]12CCC[C@H]1[C@@H]1CC[C@H]3CC(=O)CC[C@]3(C)[C@H]1CC2 [Androstanone]	–	–	–	calcium response to receptor specific odor [1]: response occurred
O=C(O)CCCCCCCC(=O)O [Nonanedionic acid]	–	–	–	calcium response to receptor specific odor [2]: response occurred
CC(=O)c1ccccc1 [acetophenone]	responded; also recorded: sensitive	sensitive	respond	response to stimulus (change in intracellular calcium) [4]: exhibited a response; also recorded: respond; also recorded: responsive
O=Cc1ccccc1 [benzaldehyde]	responded; also recorded: sensitive	–	–	response to stimulus (change in intracellular calcium) [4]: respond
O=c1ccc2ccccc2o1 [coumarin]	–	sensitive	–	–
C=CCc1ccc(O)c(OC)c1 [eugenol]	sensitive	sensitive	respond	response to stimulus (change in intracellular calcium) [7]: respond; also recorded: responsive
CCCCCCC=O [heptanal]	–	sensitive	–	response to receptor specific odor ([6]; listed as heptaldehyde): respond
CCCCCC(=O)O [hexanoic acid]	–	sensitive	–	–
CC(C)(O)CCCC1=CCC(C=O)CC1 (stereo not shown) [lyral]	–	sensitive	respond	–
COC(=O)/C=C/c1ccccc1 [methyl cinnamon]	–	–	respond	–

From US10908147B2, “Methods of identifying modulators of olfactory receptors” (priority 2013, dated 2021)
